The numbers were not newly measured in patent US6458386B1, “Medicaments based on polymers composed of methacrylamide-modified gelatin” (Innogenetics N.V., priority 1997, dated 2002), which cites them from elsewhere.

One series has as its system large cutaneous burns. As to conditions: children.
Another series concerns chronic pressure ulcers. The note with it: humans.
Series [1] relates to full thickness macular holes. As to conditions: human eyes.

Turning to Human Growth Hormone: hormone, the “wound healing of large cutaneous burns” value in the series with large cutaneous burns was “accelerate wound healing”. On to Platelet Derived Growth Factor, for which, in the series with chronic pressure ulcers, the “wound healing of chronic pressure ulcers” value is recorded as “wound healing stimulator”. As to Transforming Growth Factor-β, in series [1], the “effect in treatment of full thickness macular holes” value is listed as “beneficial effects”.
